The record followed here is patent publication US12344899B2, “Compositions and methods for therapeutics prescreening” (TECHNION RESEARCH & DEVELOPMENT FOUNDATION LIMITED, priority 2014, dated 2025).

“Also recorded” adds a separate entry of the source.

The test system of assay [1] is 4T1 breast cancer primary tumor. Put plainly: Barcoded nanoparticles with different drugs injected simultaneously i.v.; barcode levels in live/dead tumor cells (FIG. 8). The assay is classed as in vivo, BALB/c mice. The following applies: for therapeutic effect rated from barcode distribution / drug barcode levels in the dead cells in comparison to the live cells: tumor biopsy 48 hours later; for therapeutic effect rated from barcode distribution: FIGS. 8A-E; for drug barcode levels in the dead cells in comparison to the live cells: cells sorted live/dead. The protocol:
Barcoded nanoparticles containing control compounds or different drugs: placebo (A), caffeine (B), Cisplatin (C), Doxorubicin (D) and Gemcitabine (E), were injected simultaneously intravenously to BALB/c mice bearing a primary tumor in the hind thigh. 48 hours later, enabling the particle to accumulate in the tumor and perform the therapeutic activity, a biopsy was taken from the tumor. The biopsy tissue was then dissociated into a single-cell suspension, and the cells were screened according to their viability (live/dead). […] (F) The potency of the drugs was calculated by dividing the number of barcodes extracted from dead cells by the number of barcodes extracted from live cells for each drug. The values are presented in logarithmic scale.
In vivo transfection: 100 μl of 10^6cells/ml of 4T1 (breast cancer) was injected subcutaneous to 10 weeks balb/c female mice. About […] later (when the primary tumor was massive enough), 100 μl of liposome solution was injected intravenous. 36 hrs later, the mouse was sacrificed and its organs (+tumor) were taken in ice for further steps.
In the present study, ovarian tumors are expanded in hESC teratomas in SCID/beige mice, as previously described (Burgos-Ojeda, ibid.). Barcoded nanoparticles loaded with anti-cancer drugs are administered intravenously. Evaluation of the therapeutic task of the nanoparticle is evaluated after 48 hours which enables accumulation in the tumor and carrying out a therapeutic task. […] Post-mortem histological evaluation of the tissue is used to study the tumor bio-distribution. A biopsy sample is then dissociated into a single-cell suspension and the cells are sorted, using antibodies, according to cell subpopulation (including, CD45, CD11B, F4/80, CD13, REST) and viability (live/dead).
Barcoded nanoparticles containing five different drugs or control compounds (FIG. 8 depicts Placebo, Caffeine, Cisplatin, Doxorubicin and Gemcitabine), were injected simultaneously intravenously to BALB/c mice bearing a primary tumor in the hind thigh. 48 hours later, a biopsy was taken from the tumor. The biopsy tissue was then dissociated into a single-cell suspension, and the cells were screened according to their viability (live/dead).

The subject of another assay is 4T1 breast cancer tumor. In words: Therapeutic treatment validating the barcoding analysis (FIG. 9). The assay is classed as in vivo, mice. The following applies: for proliferation index (anti-Ki67 immunohistochemistry): tumors extracted 24 days after starting treatment, 125 mg/kg Gemcitabine i.v. weekly. An excerpt: FIG. 9A-D. Therapeutic efficacy based on barcoding analysis. FIGS. 9A-B and D are bar graphs comparing tumor volume change between different therapeutic groups. Each group got a weekly dose of chemo drug Doxorubicin, Cisplatin, or Gemcitabine. The control group got saline. Representative tumor dimensions of each group. The tumor was extracted […] after starting the treatment. Tumor/Body weight of each group.
To validate the barcoding analysis of the three chemotherapeutic drugs—Doxorubicin, Cisplatin and Gemcitabine, therapeutic treatment was conducted. The experiment included 4 groups, each containing 6 mice. Each group was treated with single drug for 24 days, starting 10 days post tumor induction. Each dose was given intravenous once a week. Each group was treated with either 5 mg/kg of Doxorubicin, 6 mg/kg of Cisplatin, 125 mg/kg of Gemcitabine or 100 μl of saline as a control. Tumors volumes were measured with caliper and calculated as length/2*(width)^2. […] 24 days after starting the treatment, the tumor of each mouse was extracted for further analysis. […] The tumor weight parameter reflects the effectiveness of the drug to inhibit and damage the tumor growth. The body weight parameter reflects the influence of the drug on the body or how severe are the side effects of the drug. […] To check differences in the tissue level between the different groups, all the tumors were studied histologically. Tissue slides from the tumors were stained with hematoxylin and eosin. […] Additionally, tissue slides were immunohistochemically stained with rabbit monoclonal anti-Ki67 antibody (SP6; Thermo Scientific, Fremont, Calif.) to determine proliferation index (not shown).

Setting [2] is: 5 mg/kg Doxorubicin, 6 mg/kg Cisplatin.

As to `Cn1c(=O)c2c(ncn2C)n(C)c1=O` [Caffeine], in assay [1] (drug in barcoded nanoparticles), the “therapeutic effect rated from barcode distribution” value (from here on “therapeutic effect rated”) was “almost no effect”.

In the case of `N.N.[Cl][Pt][Cl]` [Cisplatin], the “therapeutic effect rated” value in assay [1] (drug in barcoded nanoparticles) is recorded as “clear therapeutic effect”. In addition, the “drug barcode levels in the dead cells in comparison to the live cells” value in assay [1] was “Elevated levels”. Moreover, in the assay on 4T1 breast cancer tumor (setting [2]), the “proliferation index (anti-Ki67 immunohistochemistry)” value (from here on “proliferation index”) came out at 65%.

`COc1cccc2c1C(=O)c1c(O)c3c(c(O)c1C2=O)C[C@@](O)(C(=O)CO)C[C@@H]3O[C@H]1C[C@H](N)[C@H](O)[C@H](C)O1` [Doxorubicin]: in assay [1] (drug in barcoded nanoparticles), the “therapeutic effect rated” value was “clear therapeutic effect”. For the same compound, in the assay with 4T1 breast cancer tumor (setting [2]), the “proliferation index” value is on record as 90%.

With `Nc1ccn([C@@H]2O[C@H](CO)[C@@H](O)C2(F)F)c(=O)n1` [Gemcitabine], the “barcodes accumulated in the dead cells, more compare to the live cells” value in assay [1] (drug in barcoded nanoparticles, 48 hours, FIG. 8(E)) is given as 6,000. In assay [1] (drug in barcoded nanoparticles), the “therapeutic effect rated” value is reported as “more effective than cisplatin; also recorded: most efficient drug”. In assay [1], the “drug barcode levels in the dead cells in comparison to the live cells” value is reported as “Elevated levels”. Besides, the tumor/body weight ratio result with 4T1 breast cancer tumor (at sacrifice, FIG. 9(C), weekly i.v. dosing) was “minimum tumor/body weight ratio”. Further, in the assay with 4T1 breast cancer tumor (i.v. once a week for 24 days, 5 mg/kg Doxorubicin, 6 mg/kg Cisplatin, 125 mg/kg Gemcitabine, FIG. 9(A)), the “tumor volume change / tumor growth” value is “significantly attenuated the growth of the tumors”. In addition, in the assay on 4T1 breast cancer tumor (setting [2]), the “proliferation index” value came to 40%.
